Like-named read-outs stand apart in the source and are kept apart here.
How the values were obtained:
Assay type in all cases: cell-based
[1] = biological target: T1, F508del (Homo sapiens, UniProt P13569, DEL508-508); assay: 3T3 assay: membrane potential optical assay for F508del correction in NIH 3T3 cells; settings: for Emax: NIH3T3
T1 construct: expressed in transfected cells
Description: 1. Membrane Potential Optical Methods for Assaying F508del Modulation Properties of Compounds
The assay utilizes fluorescent voltage sensing dyes to measure changes in membrane potential using a fluorescent plate reader (e.g., FLIPR III, Molecular Devices, Inc.) as a readout for increase in functional F508del in NIH 3T3 cells. The driving force for the response is the creation of a chloride ion gradient in conjunction with channel activation by a single liquid addition step after the cells have previously been treated with compounds and subsequently loaded with a voltage sensing dye.
2. Identification of Corrector Compounds
To identify correctors of F508del, a single-addition HTS assay format was developed. This HTS assay utilizes fluorescent voltage sensing dyes to measure changes in membrane potential on the FLIPR III as a measurement for increase in gating (conductance) of F508del in F508del NIH 3T3 cells. The F508del NIH 3T3 cell cultures were incubated with the corrector compounds at a range of concentrations for 18-24 hours at 37° C., and subsequently loaded with a redistribution dye. The driving force for the response is a Cl^− ion gradient in conjunction with channel activation with forskolin in a single liquid addition step using a fluorescent plate reader such as FLIPR III.
Bath Solution #1: (in mM) NaCl 160, KCl 4.5, CaCl2) 2, MgCl2 1, HEPES 10, pH 7.4 with NaOH.
Chloride-free bath solution: Chloride salts in Bath Solution #1 (above) are substituted with gluconate salts.
NIH3T3 mouse fibroblasts stably expressing F508del are used for optical measurements of membrane potential. The cells are maintained at 37° C. in 5% CO2 and 90% humidity in Dulbecco's modified Eagle's medium supplemented with 2 mM glutamine, 10% fetal bovine serum, 1×NEAA, b-ME, 1×pen/strep, and 25 mM HEPES in 175 cm^2 culture flasks. For all optical assays, the cells were seeded at ˜20,000/well in 384-well matrigel-coated plates. For the correction assays, the cells are cultured at 37° C. with and without compounds for 16-24 hours.

[2] = biological target: T2, CFTR (Homo sapiens, UniProt P13569); assay: Membrane Potential Dye, Enteroid Assay A; settings: for EC50: read-out: Ent. A EC50
T2 sequence (P13569 with tags, fused parts or gaps DEL508-508): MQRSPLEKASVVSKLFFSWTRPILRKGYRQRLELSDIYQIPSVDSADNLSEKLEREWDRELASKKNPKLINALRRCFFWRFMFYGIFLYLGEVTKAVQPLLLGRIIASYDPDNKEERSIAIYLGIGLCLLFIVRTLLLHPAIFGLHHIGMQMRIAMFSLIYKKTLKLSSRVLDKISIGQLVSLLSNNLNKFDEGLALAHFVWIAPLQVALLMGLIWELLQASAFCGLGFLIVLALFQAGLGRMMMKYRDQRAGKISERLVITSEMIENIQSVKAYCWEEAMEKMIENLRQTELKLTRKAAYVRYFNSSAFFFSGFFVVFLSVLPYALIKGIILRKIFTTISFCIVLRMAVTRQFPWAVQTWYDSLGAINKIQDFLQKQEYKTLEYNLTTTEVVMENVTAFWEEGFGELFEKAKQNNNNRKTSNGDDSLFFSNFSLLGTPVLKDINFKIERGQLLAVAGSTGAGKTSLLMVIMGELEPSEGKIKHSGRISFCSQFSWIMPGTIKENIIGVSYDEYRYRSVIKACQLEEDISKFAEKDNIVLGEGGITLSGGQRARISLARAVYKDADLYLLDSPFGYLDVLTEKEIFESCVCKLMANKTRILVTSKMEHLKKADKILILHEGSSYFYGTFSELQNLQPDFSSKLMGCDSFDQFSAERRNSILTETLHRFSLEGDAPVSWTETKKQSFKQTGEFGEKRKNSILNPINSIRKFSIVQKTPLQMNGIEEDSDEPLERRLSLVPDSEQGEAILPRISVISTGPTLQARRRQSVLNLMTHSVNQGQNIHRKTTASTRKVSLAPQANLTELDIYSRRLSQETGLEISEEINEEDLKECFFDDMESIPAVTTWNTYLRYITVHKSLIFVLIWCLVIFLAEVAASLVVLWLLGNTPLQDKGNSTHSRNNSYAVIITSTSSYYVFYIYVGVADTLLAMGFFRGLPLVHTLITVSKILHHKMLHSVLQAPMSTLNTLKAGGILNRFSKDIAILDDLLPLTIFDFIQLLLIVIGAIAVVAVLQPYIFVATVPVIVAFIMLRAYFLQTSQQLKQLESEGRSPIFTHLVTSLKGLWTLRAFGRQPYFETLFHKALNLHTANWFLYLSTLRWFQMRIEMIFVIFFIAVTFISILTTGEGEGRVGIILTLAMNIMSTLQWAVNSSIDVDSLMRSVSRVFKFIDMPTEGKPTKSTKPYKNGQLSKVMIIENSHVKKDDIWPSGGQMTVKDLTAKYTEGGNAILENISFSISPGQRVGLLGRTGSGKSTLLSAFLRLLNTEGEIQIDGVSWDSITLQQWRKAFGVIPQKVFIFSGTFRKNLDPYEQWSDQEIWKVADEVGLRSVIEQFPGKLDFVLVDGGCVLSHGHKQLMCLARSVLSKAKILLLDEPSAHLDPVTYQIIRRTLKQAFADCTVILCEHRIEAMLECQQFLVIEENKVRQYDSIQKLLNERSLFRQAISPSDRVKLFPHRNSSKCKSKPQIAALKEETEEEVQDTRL
Procedure, shortened: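 Signal is reported as % Activity relative to a triple CFTR modulator control (3 μM + 3 μM + 300 nM acute). Read-out: membrane potential fluorescence (20 μM methyl oxonol) monitored for 15 min after chloride-free stimulation. Dye loading took 25 min at room temperature in Bath 1 buffer containing CaCC blockers.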

[3] = biological target: T2, CFTR; assay: Membrane Potential Dye, Enteroid Assay B; settings: Table 9
Procedure, shortened: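 Enteroid cells loaded 25 min at room temperature with 20 μM methyl oxonol plus 30 μM CaCCinh-A01 and 30 μM Chicago Sky Blue, then switched to chloride-free gluconate buffer. Chloride transport was started by chloride-free stimulation solution, with fluorescence read for 15 min.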

[4] = Table 8, read-out: 3T3 Max Activity
[5] = NIH 3T3 cells, F508del correction

T1 sequence (P13569 with tags, fused parts or gaps DEL508-508): as above

| Emax [1, 4] | EC50 ([1]; Table 8) | Ent. A Max Activity ([2]; Table 8) | EC50 ([2]; Table 8) | SMILES | other results |
| --- | --- | --- | --- | --- | --- |
| > 60% | < 1000 nM | +++ (+++ is >60%) | < 1000 nM | Cc1cccc(C)c1-c1cc2nc(n1)NS(=O)(=O)c1cccc(c1)C(=O)NCC(c1ccc(C3(C(F)(F)F)CC3)cc1)O2 (racemic) [Compound 9, 6-(2,6-dimethylphenyl)-10-{4-[1-(trifluoromethyl)cyclopropyl]phenyl}-9-oxa-2λ^6-thia-3,5,12,19-tetraazatricyclo[12.3.1.14,8]nonadeca-1(18),4(19),5,7,14,16-hexaene-2,2,13-trione] | – |
| > 60% | < 1000 nM | +++ (+++ is >60%) | < 1000 nM | Cc1cccc(C)c1-c1cc2nc(n1)NS(=O)(=O)c1cccc(c1)C(=O)NC[C@@H](c1ccc(C(C)(C)C)cn1)O2 (single isomer, unassigned) [Compound 7, 10-(5-tert-Butyl-2-pyridyl)-6-(2,6-dimethylphenyl)-2,2-dioxo-9-oxa-2λ^6-thia-3,5,12,19-tetrazatricyclo[12.3.1.14,8]nonadeca-1(18),4(19),5,7,14,16-hexaen-13-one] | – |
| > 60% | < 1000 nM | +++ (+++ is >60%) | < 1000 nM | Cc1cccc(C)c1-c1cc2nc(n1)NS(=O)(=O)c1cccc(c1)C(=O)N[C@H](CCC(C)(C)C)CO2 (single isomer, unassigned) [Compound 47] | – |
| > 60% | < 1000 nM | + (+ is <30%) | 3000 to 30000 nM | Cc1cccc(C)c1-c1cc2nc(n1)NS(=O)(=O)c1cccc(c1)C(=O)NC[C@H](c1cccc(C(C)(C)C)c1)O2 (stereo in doubt) [Compound 274] | – |
| > 60% | < 1000 nM | +++ (+++ is >60%) | < 1000 nM | Cc1cccc(C)c1-c1cc2nc(n1)NS(=O)(=O)c1cccc(c1)C(=O)NC[C@@H](c1ccc(C(F)(F)F)cc1)O2 (stereo in doubt) [Compound 401] | – |
| > 60% | < 1000 nM | – | 1000 to 3000 nM | Cc1cccc(C)c1-c1cc2nc(n1)NS(=O)(=O)c1cccc(c1)C(=O)NCC(c1ccc3c(c1)CC(C)(C)O3)O2 (stereo not shown) [Compound 115] | – |
| > 60% | < 1000 nM | – | < 1000 nM | Cc1cccc(C)c1-c1cc2nc(n1)NS(=O)(=O)c1cccc(c1)C(=O)NCC(c1ccc3c(c1)OCO3)O2 (stereo not shown) [Compound 118] | – |
| > 60% | < 1000 nM | – | < 1000 nM | Cc1cc(C(C)(C)C)ccc1[C@@H]1CNC(=O)c2cccc(c2)S(=O)(=O)Nc2nc(cc(-c3c(C)cccc3C)n2)O1 [Compound 155] | – |
| – | < 1000 nM | +++ (+++ is >60%) | < 1000 nM | Cc1cccc(C)c1-c1cc2nc(n1)NS(=O)(=O)c1cccc(c1)C(=O)NCC(c1ccc(C(C)C)cc1)O2 (stereo not shown) [Compound 271] | 3T3 Max Activity ([1]; Table 8): +++ (+++ is >60%) |
| > 60% | < 1000 nM | + (+ is <30%) | 1000 to 3000 nM | Cc1cccc(C)c1-c1cc2nc(n1)NS(=O)(=O)c1cccc(c1)C(=O)NCC(c1ccc(C(C)C)cc1)O2 (stereo not shown) [Compound 272] | – |

More lines, now with the values behind:

| SMILES | Emax [1, 4] | EC50 ([1]; Table 8) | Ent. A Max Activity ([2]; Table 8) | EC50 ([2]; Table 8) | other results |
| --- | --- | --- | --- | --- | --- |
| Cc1cccc(C)c1-c1cc2nc(n1)NS(=O)(=O)c1cccc(c1)C(=O)N[C@H](CC(C)C)C(C1CC1)O2 (stereo in doubt) [Compound 239] | > 60% | < 1000 nM | +++ (+++ is >60%) | < 1000 nM | – |
| Cc1cccc(C)c1-c1cc2nc(n1)NS(=O)(=O)c1cccc(c1)C(=O)NC[C@H](C1CCCCC1)O2 (stereo in doubt) [Compound 270] | > 60% | < 1000 nM | + (+ is <30%) | – | – |
| CCCC[C@@H]1Oc2cc(-c3c(C)cccc3C)nc(n2)NS(=O)(=O)c2cccc(c2)C(=O)N[C@@H]1CC1CCCCC1 (stereo in doubt) [Compound 287] | > 60% | < 1000 nM | +++ (+++ is >60%) | < 1000 nM | – |
| Cc1cccc(F)c1-c1cc2nc(n1)NS(=O)(=O)c1cccc(c1)C(=O)N[C@H](CC(C)C)CO2 [Compound 98, (11R)-6-(2-Fluoro-6-methylphenyl)-11-(2-methylpropyl)-9-oxa-2λ^6-thia-3,5,12,19-tetraazatricyclo[12.3.1.14,8]nonadeca-1(17),4,6,8(19),14(18),15-hexaene-2,2,13-trione] | > 60% | < 1000 nM | +++ (+++ is >60%) | < 1000 nM | – |
| CC1=C(c2cc3nc(n2)NS(=O)(=O)c2cccc(c2)C(=O)N[C@H](CC(C)C)CO3)C(C)CCC1 (stereo partly drawn) [Compound 100, (11R)-6-(2,6-Dimethylcyclohex-1-en-1-yl)-11-(2-methylpropyl)-9-oxa-2λ^6-thia-3,5,12,19-tetraazatricyclo[12.3.1.14,8]nonadeca-1(17),4,6,8(19),14(18),15-hexaene-2,2,13-trione] | > 60% | < 1000 nM | +++ (+++ is >60%) | 1000 to 3000 nM | – |
| Cc1cccc(C)c1-c1cc2nc(n1)NS(=O)(=O)c1cccc(c1)C(=O)N[C@H](CC(C)C)[C@@H](C1CCCCC1)O2 [Compound 140] | > 60% | < 1000 nM | +++ (+++ is >60%) | < 1000 nM | – |
| Cc1cccc(C)c1-c1cc2nc(n1)NS(=O)(=O)c1cccc(c1)C(=O)N[C@H](CC1CCCCC1)[C@H](C)O2 [Compound 143] | > 60% | < 1000 nM | +++ (+++ is >60%) | < 1000 nM | – |
| Cc1ccc2cc1S(=O)(=O)Nc1nc(cc(-c3c(C)cccc3C)n1)OC[C@@H](CC1CCCCC1)NC2=O [Compound 160] | – | – | – | – | EC50 [1, 5]: < 1000 nM; Ent. A Max Activity ([2]; Enteroid Assay A): ++ (++ is 30-60%); EC50 ([2]; Enteroid Assay A): 1000 to 3000 nM |
| Cc1ccc2cc1C(=O)N[C@H](CC1CCCCC1)COc1cc(-c3c(C)cccc3C)nc(n1)NS2(=O)=O [Compound 161] | – | – | – | – | EC50 [1, 5]: 3000 to 30000 nM |
| Cc1cccc(C)c1-c1cc2nc(n1)NS(=O)(=O)c1cccc(c1)C(=O)N[C@H]1CC[C@H](CC1)O2 [Compound 198] | – | – | – | – | Emax ([1]; heading: 3T3 Max Activity, NIH 3T3 cells, F508del correction): > 60%; EC50 [1, 5]: < 1000 nM; Ent. A Max Activity ([2]; Enteroid Assay A): +++ (+++ is >600%); EC50 ([2]; Enteroid Assay A): 1000 to 3000 nM |
| Cc1cccc(C)c1-c1cc2nc(n1)NS(=O)(=O)c1cccc(c1)C(=O)NCC(C)(C)CO2 [Compound 202] | – | – | – | – | EC50 [1, 5]: < 1000 nM; Ent. A Max Activity ([2]; Enteroid Assay A): ++ (++ is 30-60%); EC50 ([2]; Enteroid Assay A): 3000 to 30000 nM |
| Cc1cccc(C)c1-c1cc2nc(n1)NS(=O)(=O)c1cccc(c1)C(=O)NC1CCCC(C1)O2 (stereo not shown) [Compound 203] | – | – | – | – | EC50 [1, 5]: < 1000 nM; Ent. A Max Activity ([2]; Enteroid Assay A): ++ (++ is 30-60%) |
| Cc1cccc(C)c1-c1cc2nc(n1)NS(=O)(=O)c1cccc(c1)C(=O)NCCCO2 [Compound 204] | – | – | – | – | EC50 [1, 5]: 1000 to 3000 nM; Ent. A Max Activity ([2]; Enteroid Assay A): ++ (++ is 30-60%) |
| Cc1cccc(C)c1-c1cc2nc(n1)NS(=O)(=O)c1cccc(c1)C(=O)NC(Cc1ccccc1)CO2 (stereo not shown) [Compound 206] | – | – | – | – | EC50 [1, 5]: < 1000 nM; Ent. A Max Activity ([2]; Enteroid Assay A): +++ (+++ is >600%); EC50 ([2]; Enteroid Assay A): < 1000 nM |
| Cc1cccc(C)c1-c1cc2nc(n1)NS(=O)(=O)c1cccc(c1)C(=O)NC[C@@H](C1CCCCC1)O2 [Compound 269] | > 60% | < 1000 nM | – | – | – |
| Cc1cccc(C)c1-c1cc2nc(n1)NS(=O)(=O)c1ccccc1C(=O)NCC(C1CCC(C)(C)CC1)O2 (stereo not shown) [Compound 284] | > 60% | < 1000 nM | +++ (+++ is >60%) | < 1000 nM | – |
| Cc1ccccc1-c1cc2nc(n1)NS(=O)(=O)c1cccc(c1)C(=O)N[C@H](CC(C)(C)C)CO2 [Compound 305] | > 60% | < 1000 nM | +++ (+++ is >60%) | < 1000 nM | – |
| CC(C)C[C@@H]1COc2cc(-c3ccccc3F)nc(n2)NS(=O)(=O)c2cccc(c2)C(=O)N1 [Compound 315] | > 60% | < 1000 nM | +++ (+++ is >60%) | 1000 to 3000 nM | – |
| Cc1cccc(C)c1-c1cc2nc(n1)NS(=O)(=O)c1cccc(c1)C(=O)NCC(CC(C)C)(CC(C)C)CO2 [Compound 496] | – | – | – | – | Ent. A Max Activity ([2]; Table 9): +++ (+++ is >60%); EC50 ([2]; Table 9): < 1000 nM; Ent. B Max Activity [3]: +++ (+++ is >60%); EC50 ([3]; read-out: Ent. B EC50): < 1000 nM |
